Results published in patent US20080176936A1, “Classes of Compounds that Interact with Integrins” (priority 2005, published 2008).

Columns and labels:
[1] = biological target: T1, αllbβ3 integrin (Homo sapiens, UniProt P05106+P08514); assay: ELISA: inhibition of binding of αllbβ3 integrin membrane preparation to coated extracellular matrix protein; settings: human platelet membrane preparation
T1 construct: Human platelet membrane preparations were used as a source of αllbβ3 integrin; from tissue; host or cells: human platelets (membrane preparation)
T1 sequence (P08514 32-887 limits assumed): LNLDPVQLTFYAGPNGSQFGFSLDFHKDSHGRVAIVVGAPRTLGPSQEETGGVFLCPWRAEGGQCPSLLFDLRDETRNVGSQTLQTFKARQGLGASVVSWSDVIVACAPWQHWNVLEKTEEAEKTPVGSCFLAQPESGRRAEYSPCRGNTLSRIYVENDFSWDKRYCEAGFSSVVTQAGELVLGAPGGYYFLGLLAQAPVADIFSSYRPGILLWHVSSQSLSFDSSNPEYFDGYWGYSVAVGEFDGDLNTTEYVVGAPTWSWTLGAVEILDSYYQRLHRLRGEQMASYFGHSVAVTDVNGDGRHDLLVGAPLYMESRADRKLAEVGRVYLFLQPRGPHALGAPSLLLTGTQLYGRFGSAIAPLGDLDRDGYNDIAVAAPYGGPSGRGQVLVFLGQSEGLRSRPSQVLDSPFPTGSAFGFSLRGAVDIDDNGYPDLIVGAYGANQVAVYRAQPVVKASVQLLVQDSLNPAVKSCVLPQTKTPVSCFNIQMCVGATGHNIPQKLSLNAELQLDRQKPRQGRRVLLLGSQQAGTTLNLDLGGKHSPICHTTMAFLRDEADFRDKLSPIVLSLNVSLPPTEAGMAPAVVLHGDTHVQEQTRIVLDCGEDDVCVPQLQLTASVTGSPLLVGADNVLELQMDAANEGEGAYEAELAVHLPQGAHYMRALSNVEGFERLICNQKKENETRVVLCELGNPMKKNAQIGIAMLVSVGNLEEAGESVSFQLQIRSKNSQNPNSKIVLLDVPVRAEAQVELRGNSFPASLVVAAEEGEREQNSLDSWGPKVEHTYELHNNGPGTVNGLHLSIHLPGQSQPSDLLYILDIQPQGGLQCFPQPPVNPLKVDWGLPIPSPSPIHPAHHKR
T1 sequence (P08514 891-1039 partner limits assumed): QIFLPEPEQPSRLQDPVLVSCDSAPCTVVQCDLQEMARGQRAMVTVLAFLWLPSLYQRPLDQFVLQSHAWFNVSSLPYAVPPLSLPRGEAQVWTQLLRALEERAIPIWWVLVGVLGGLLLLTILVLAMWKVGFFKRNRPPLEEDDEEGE
T1 sequence (P05106 27-788): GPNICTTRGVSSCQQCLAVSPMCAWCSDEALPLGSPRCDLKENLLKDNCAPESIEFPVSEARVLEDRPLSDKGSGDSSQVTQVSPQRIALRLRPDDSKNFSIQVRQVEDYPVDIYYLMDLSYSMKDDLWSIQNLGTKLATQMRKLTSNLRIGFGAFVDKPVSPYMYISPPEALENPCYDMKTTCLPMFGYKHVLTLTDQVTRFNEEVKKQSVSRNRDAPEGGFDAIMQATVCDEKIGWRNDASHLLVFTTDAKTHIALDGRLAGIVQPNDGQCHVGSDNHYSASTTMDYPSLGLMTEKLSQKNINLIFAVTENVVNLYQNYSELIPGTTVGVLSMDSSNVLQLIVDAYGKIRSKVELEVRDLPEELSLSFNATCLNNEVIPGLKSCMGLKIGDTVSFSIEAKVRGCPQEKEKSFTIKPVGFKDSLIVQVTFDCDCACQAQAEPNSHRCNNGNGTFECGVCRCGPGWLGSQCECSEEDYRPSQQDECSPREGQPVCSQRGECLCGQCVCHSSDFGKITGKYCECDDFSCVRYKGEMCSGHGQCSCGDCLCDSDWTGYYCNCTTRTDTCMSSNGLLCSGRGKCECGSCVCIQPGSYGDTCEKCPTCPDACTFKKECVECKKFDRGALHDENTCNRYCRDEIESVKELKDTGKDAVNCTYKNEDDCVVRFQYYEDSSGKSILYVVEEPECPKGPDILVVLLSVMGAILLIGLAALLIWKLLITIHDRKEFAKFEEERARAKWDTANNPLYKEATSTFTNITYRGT
In short: (§1)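 Integrin sources were human platelet membrane preparations for αIIbβ3 and WM-115 cells for αVβ3, each preincubated with test compound. Binding to fibrinogen- or vitronectin-coated plates (10 µg/well) was quantified with an anti-integrin β3 antibody and an HRP-coupled secondary antibody using colorimetric detection.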

[2] = biological target: T2, αVβ3 integrin (Homo sapiens, UniProt P05106+P06756); assay: ELISA: inhibition of binding of αVβ3 integrin (source WM-115 cell line) to coated extracellular matrix protein; settings: WM-115 cell line as integrin source
T2 construct: the cell line WM-115 was used as a source of αVβ3 integrin; endogenous in cells; host or cells: WM-115 cell line
T2 sequence (P06756 31-889 limits assumed): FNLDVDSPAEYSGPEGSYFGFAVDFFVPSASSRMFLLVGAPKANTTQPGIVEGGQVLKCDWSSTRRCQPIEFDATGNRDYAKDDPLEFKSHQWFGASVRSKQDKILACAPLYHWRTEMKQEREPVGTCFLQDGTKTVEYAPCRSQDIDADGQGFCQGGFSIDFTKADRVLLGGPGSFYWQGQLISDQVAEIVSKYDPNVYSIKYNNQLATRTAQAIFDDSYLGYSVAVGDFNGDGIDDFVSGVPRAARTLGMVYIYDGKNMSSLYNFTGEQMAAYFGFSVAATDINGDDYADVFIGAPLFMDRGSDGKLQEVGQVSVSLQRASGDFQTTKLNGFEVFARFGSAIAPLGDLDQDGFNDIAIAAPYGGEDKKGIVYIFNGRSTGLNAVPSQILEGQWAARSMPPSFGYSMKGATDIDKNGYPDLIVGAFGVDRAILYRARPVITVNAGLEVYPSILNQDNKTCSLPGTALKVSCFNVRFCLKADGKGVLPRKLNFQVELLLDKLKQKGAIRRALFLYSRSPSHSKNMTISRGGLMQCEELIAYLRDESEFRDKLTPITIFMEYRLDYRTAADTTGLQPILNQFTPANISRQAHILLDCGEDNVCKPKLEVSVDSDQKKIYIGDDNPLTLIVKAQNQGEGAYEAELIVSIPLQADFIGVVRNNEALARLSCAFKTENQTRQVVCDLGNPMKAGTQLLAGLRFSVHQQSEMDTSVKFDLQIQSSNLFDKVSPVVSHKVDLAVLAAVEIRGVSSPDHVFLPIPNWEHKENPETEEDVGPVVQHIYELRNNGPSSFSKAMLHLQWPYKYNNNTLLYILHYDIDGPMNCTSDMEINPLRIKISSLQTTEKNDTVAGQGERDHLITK
T2 sequence (P06756 891-1048 partner limits assumed): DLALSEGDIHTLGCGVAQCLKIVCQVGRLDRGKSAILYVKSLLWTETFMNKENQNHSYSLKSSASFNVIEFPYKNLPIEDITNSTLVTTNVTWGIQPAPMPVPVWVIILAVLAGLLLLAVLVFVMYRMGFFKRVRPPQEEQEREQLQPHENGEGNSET
T2 sequence (P05106 27-788): as the sequence (P05106 27-788) above
In short: as §1

Structure (SMILES)	INHIBITION @ 250 uM RECEPTOR allBb3 SUBSTRATE FIBRINOGEN [1]	INHIBITION 250 uM RECEPTOR allBb3 SUBSTRATE VITRONECTIN [1]	INHIBITION 250 uM RECEPTOR aVb3 SUBSTRATE FIBRINOGEN [2]
COC1OC(COCC(=O)O)C(O)C(OCc2ccccc2)C1NC(=O)CCCNC(=N)N (single isomer, unassigned) [Compound 125]	+ (36% to 60% inhibition at 250 micromolar)	+++ (81% to 100% inhibition at 250 micromolar)	+ (36% to 60% inhibition at 250 micromolar)
COC(=O)COCC1OC(OC)C(NC(=O)CCCNC(=N)N)C(OCc2ccccc2)C1O (single isomer, unassigned) [Compound 126]	++ (61% to 80% inhibition at 250 micromolar)	+++ (81% to 100% inhibition at 250 micromolar)	+++ (81% to 100% inhibition at 250 micromolar)
COC1OC(COCC(=O)O)C(O)C(OCc2ccccc2)C1NC(=O)c1ccc(CN)cc1 (single isomer, unassigned) [Compound 127]	− (0% to 35% inhibition at 250 micromolar)	− (0% to 35% inhibition at 250 micromolar)	− (0% to 35% inhibition at 250 micromolar)
COC1OC(COCC(=O)O)C(O)C(OCc2ccccc2)C1NC(=O)c1ccc(CNC(=N)N)cc1 (single isomer, unassigned) [Compound 128]	− (0% to 35% inhibition at 250 micromolar)	+++ (81% to 100% inhibition at 250 micromolar)	− (0% to 35% inhibition at 250 micromolar)
COC1OC(COCC(=O)O)C(O)C(OCc2ccccc2)C1NC(=O)c1ccc(CNC(=N)N)cc1 (single isomer, unassigned) [Compound 129]	− (0% to 35% inhibition at 250 micromolar)	+++ (81% to 100% inhibition at 250 micromolar)	− (0% to 35% inhibition at 250 micromolar)
COC1OC(COCC(=O)O)C(O)C(OCc2ccccc2)C1NC(=O)c1cc(N)cc(N)c1 (single isomer, unassigned) [Compound 130]	− (0% to 35% inhibition at 250 micromolar)	+++ (81% to 100% inhibition at 250 micromolar)	− (0% to 35% inhibition at 250 micromolar)
COC1OC(COCC(=O)O)C(O)C(OCc2ccccc2)C1NC(=O)c1cc(N)cc(N)c1 (single isomer, unassigned) [Compound 131]	+ (36% to 60% inhibition at 250 micromolar)	+++ (81% to 100% inhibition at 250 micromolar)	− (0% to 35% inhibition at 250 micromolar)
COC1OC(COCC(=O)O)C(O)C(OCc2ccccc2)C1NC(=O)C1CCNCC1 (single isomer, unassigned) [Compound 134]	+++ (81% to 100% inhibition at 250 micromolar)	+++ (81% to 100% inhibition at 250 micromolar)	− (0% to 35% inhibition at 250 micromolar)
COC1OC(COCC(=O)O)C(O)C(OCc2ccccc2)C1NC(=O)C1CCNCC1 (single isomer, unassigned) [Compound 136]	+++ (81% to 100% inhibition at 250 micromolar)	–	− (0% to 35% inhibition at 250 micromolar)
COC1OC(COCC(=O)O)C(O)C(OCc2ccccc2)C1NC(=O)C1CCC(CN)CC1 (single isomer, unassigned) [Compound 137]	+++ (81% to 100% inhibition at 250 micromolar)	+++ (81% to 100% inhibition at 250 micromolar)	++ (61% to 80% inhibition at 250 micromolar)
